Assay results: patent publication US20240270751A1, “Pyrazolopyridinone Compounds” (BeiGene Ltd., priority 2021, published 2024)

Legend:
[1] = target: DGKζ (Homo sapiens (Human), UniProt Q13574); test: Biochemical DGK IC50 assay, DGKζ ADP-Glo assay; conditions: 0.5 nM enzyme, 140 μM ATP, 80 μM DAG; read-out: DGKζ ADP-Glo assay IC50
Procedure, shortened: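 Full-length human DGKζ, His-TEV tagged and purified from baculovirus-infected Sf9 cells, assayed by ADP-Glo with DAG/PS lipid micelle substrate prepared in 25 mM HEPES pH 7.0 with octyl glucoside. Final compound concentrations spanned 1.55–10000 nM or 23.3–150000 nM.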

[2] = target: DGKα (Homo sapiens (Human), UniProt P23743); test: Biochemical DGK IC50 assay, DGKα ADP-Glo assay; conditions: 7.5 nM enzyme, 140 μM ATP, 80 μM DAG
Procedure, shortened: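 ADP-Glo read-out with full-length DGKα on DAG/PS lipid micelle substrate in 25 mM HEPES pH 7.0, 0.5 mM EDTA, 160 mM octyl β-D-glucopyranoside. Compound final concentrations spanned 1.55˜10000 nM or 23.3˜150000 nM.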

Chain of DGKα (P23743 whole entry): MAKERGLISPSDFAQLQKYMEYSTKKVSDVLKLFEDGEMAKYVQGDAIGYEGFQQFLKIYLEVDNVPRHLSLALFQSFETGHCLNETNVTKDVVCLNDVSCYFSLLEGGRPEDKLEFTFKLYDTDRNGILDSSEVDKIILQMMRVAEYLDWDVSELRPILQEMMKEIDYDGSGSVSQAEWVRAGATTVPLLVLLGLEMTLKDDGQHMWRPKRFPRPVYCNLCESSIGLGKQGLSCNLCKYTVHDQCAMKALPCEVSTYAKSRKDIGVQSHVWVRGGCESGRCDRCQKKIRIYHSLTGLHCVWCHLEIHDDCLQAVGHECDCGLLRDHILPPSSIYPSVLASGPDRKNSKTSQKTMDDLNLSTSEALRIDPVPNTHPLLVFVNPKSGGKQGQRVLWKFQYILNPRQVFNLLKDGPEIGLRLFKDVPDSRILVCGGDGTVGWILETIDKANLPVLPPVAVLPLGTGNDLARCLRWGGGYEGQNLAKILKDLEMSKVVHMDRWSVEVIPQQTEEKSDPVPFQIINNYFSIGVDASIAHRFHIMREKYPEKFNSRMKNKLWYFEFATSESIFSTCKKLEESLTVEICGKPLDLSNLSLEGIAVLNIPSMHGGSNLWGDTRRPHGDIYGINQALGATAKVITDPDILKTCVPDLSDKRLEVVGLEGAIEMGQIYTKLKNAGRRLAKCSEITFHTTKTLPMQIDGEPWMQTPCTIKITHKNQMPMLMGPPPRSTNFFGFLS
Chain of DGKζ (Q13574 other isoform, or with tags, fused parts or gaps): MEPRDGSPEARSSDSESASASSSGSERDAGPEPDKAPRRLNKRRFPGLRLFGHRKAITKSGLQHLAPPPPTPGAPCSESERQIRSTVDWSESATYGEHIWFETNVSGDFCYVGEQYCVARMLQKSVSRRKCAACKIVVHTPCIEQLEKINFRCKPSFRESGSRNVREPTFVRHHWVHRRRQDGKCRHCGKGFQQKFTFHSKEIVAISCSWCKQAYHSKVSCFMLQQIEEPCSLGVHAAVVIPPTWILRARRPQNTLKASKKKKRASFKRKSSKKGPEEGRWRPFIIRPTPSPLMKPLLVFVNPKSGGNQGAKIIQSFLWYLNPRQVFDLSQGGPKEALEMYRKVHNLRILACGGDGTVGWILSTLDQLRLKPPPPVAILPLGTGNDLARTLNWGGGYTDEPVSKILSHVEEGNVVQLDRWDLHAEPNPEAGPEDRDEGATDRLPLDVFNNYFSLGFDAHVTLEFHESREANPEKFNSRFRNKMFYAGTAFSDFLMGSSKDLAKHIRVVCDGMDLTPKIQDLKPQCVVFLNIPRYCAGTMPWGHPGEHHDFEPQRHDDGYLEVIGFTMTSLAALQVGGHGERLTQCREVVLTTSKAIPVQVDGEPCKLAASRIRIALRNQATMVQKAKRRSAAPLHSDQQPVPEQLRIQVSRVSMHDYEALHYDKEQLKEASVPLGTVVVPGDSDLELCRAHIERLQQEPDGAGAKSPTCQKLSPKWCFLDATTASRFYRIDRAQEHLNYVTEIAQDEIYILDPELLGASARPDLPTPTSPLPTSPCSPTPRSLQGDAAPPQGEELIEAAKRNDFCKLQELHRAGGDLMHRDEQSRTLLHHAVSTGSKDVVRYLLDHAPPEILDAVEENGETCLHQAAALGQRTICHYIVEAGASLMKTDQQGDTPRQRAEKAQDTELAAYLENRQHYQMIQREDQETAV

IC50 [1] [nM]	IC50 [2] [nM]	Structure (SMILES)
128	2890	CC[C@H]1CN(C(C)c2ccc(F)cc2C)[C@H](CC)CN1c1cc(=O)n(C)c2cn(CC#N)nc12 (stereo partly drawn) [Compound A84, 2-(7-((2S,5R)-2,5-diethyl-4-(1-(4-fluoro-2-methylphenyl)ethyl)piperazin-1-yl)-4-methyl-5-oxo-4,5-dihydro-2H-pyrazolo[4,3-b]pyridin-2-yl)acetonitrile]
1300	428	CC[C@H]1CN(C(C)c2ccc(C(F)(F)F)nc2)[C@H](CC)CN1c1cc(=O)n(C)c2cn(CC#N)nc12 (single isomer, unassigned) [Compound A135b]
425	56400	CC[C@H]1CN(C(C)c2ccc(F)cc2C(=O)OC)[C@H](CC)CN1c1cc(=O)n(C)c2cn(CC#N)nc12 (stereo partly drawn) [Compound A290]
59	6370	CC#CCn1cc2c(n1)c(N1C[C@@H](CC)N(C(C)c3nc4ccccc4n3CC)C[C@@H]1CC)cc(=O)n2C (stereo partly drawn) [Compound A186]
391	> 10000	CC[C@H]1CN(C(C)c2cnc(C(F)(F)F)n2CC)[C@H](CC)CN1c1cc(=O)n(C)c2cn(CC#N)nc12 (stereo partly drawn) [Compound A239]
224	2.2	CC[C@H]1CN(C(C)c2ccc(F)cn2)[C@H](CC)CN1c1cc(=O)n(C)c2cn(CC#N)nc12 (single isomer, unassigned) [Compound A74a]
498	481	CC[C@H]1CN(C(C)c2cc(C)c(C)cn2)[C@H](CC)CN1c1cc(=O)n(C)c2cn(CC#N)nc12 (stereo partly drawn) [Compound A385]
34	3990	CC[C@H]1CN(C(C)c2nc3cccnc3n2CC)[C@H](CC)CN1c1cc(=O)n(C)c2cn(CC#N)nc12 (single isomer, unassigned) [Compound A185b]
7.8	347	[2H]C([2H])([2H])n1c(=O)cc(N2C[C@@H](CC)N(C(C)c3ccc4nccnc4c3)C[C@@H]2CC)c2nn(CC#N)cc21 (stereo partly drawn) [Compound A51]
122	1090	CC[C@H]1CN(C(C)c2ccc(F)cc2C#N)[C@H](CC)CN1c1cc(=O)n(C)c2cn(CC#N)nc12 (single isomer, unassigned) [Compound A224a]
48	40	CC[C@H]1CN(C(C)c2ccc3ccncc3c2)[C@H](CC)CN1c1cc(=O)n(C)c2cn(CC#N)nc12 (stereo partly drawn) [Compound A62, 2-(7-((2S,5R)-2,5-diethyl-4-(1-(isoquinolin-7-yl)ethyl)piperazin-1-yl)-4-methyl-5-oxo-4,5-dihydro-2H-pyrazolo[4,3-b]pyridin-2-yl)acetonitrile]
964	4560	CC[C@H]1CN(C(C)c2cnn(CC)c2C(F)(F)F)[C@H](CC)CN1c1cc(=O)n(C)c2cn(CC#N)nc12 (single isomer, unassigned) [Compound A119b]
73	75	CC[C@H]1CN(C(C)c2ccc3cnccc3c2)[C@H](CC)CN1c1cc(=O)n(C)c2cn(CC#N)nc12 (stereo partly drawn) [Compound A48]
> 10000	> 10000	CC[C@H]1CN([C@H](C)c2nc3ncccc3n2CC)[C@H](CC)CN1c1cc(=O)n(C)c2cn(CC#N)nc12 (single isomer, unassigned) [Compound A215a]
> 10000	> 10000	CC[C@H]1CN(C(C)c2nc3cccnc3n2CC)[C@H](CC)CN1c1cc(=O)n(C)c2cn(CC#N)nc12 (single isomer, unassigned) [Compound A185a]

Further lines, the compound ahead of its results:

Structure (SMILES)	IC50 [1] [nM]	IC50 [2] [nM]
CC[C@H]1CN(C(C)c2ccc(CN3CCC(F)(F)CC3)cc2)[C@H](CC)CN1c1cc(=O)n(C)c2cn(CC#N)nc12 (stereo partly drawn) [Compound A344]	198	108
CC[C@H]1CN(C(C)c2ccc3nccnc3c2)[C@H](CC)CN1c1cc(=O)n(CCOC)c2cn(CC#N)nc12 (stereo partly drawn) [Compound A96, 2-(7-((2S,5R)-2,5-diethyl-4-(1-(quinoxalin-6-yl)ethyl)piperazin-1-yl)-4-(2-methoxyethyl)-5-oxo-4,5-dihydro-2H-pyrazolo[4,3-b]pyridin-2-yl)acetonitrile]	255	> 10000
CCC(c1ccc(F)cc1C(F)(F)F)N1C[C@H](C)N(c2cc(=O)n(C)c3cn(CC#N)nc23)C[C@H]1C (stereo partly drawn) [Compound A256]	315	> 10000
COC(=O)C1CN(c2cc(=O)n(C)c3cn(CC#N)nc23)CCN1[C@@H](C)c1ccc2nccnc2c1 (single isomer, unassigned) [Compound A173a]	502	> 10000
CC[C@@H]1CN(c2cc(=O)n(C)c3cn(CC#N)nc23)[C@@H](CC)CN1Cc1ccc(OC(F)(F)F)cc1 [Compound A77]	600	9.2
CC(c1ccc2ncc(C(F)(F)F)nc2c1)N1C[C@H](C)N(c2cc(=O)n(C)c3cn(CC#N)nc23)C[C@H]1C (stereo partly drawn) [Compound A314, 2-(7-((2S,5R)-2,5-dimethyl-4-(1-(3-(trifluoromethyl)quinoxalin-6-yl)ethyl)piperazin-1-yl)-4-methyl-5-oxo-4,5-dihydro-2H-pyrazolo[4,3-b]pyridin-2-yl)acetonitrile]	689	84300
Cc1c2c(nn1CC#N)c(N1C[C@@H](C)N(C(C)c3ccc4nccnc4c3)C[C@@H]1C)cc(=O)n2C (stereo partly drawn) [Compound A209, 2-(7-((2S,5R)-2,5-dimethyl-4-(1-(quinoxalin-6-yl)ethyl)piperazin-1-yl)-3,4-dimethyl-5-oxo-4,5-dihydro-2H-pyrazolo[4,3-b]pyridin-2-yl)acetonitrile]	50	21600
CC[C@H]1CN(C(C)c2ccc(F)cc2C(F)(F)F)[C@H](CC)CN1c1cc(=O)[nH]c2cn(CC#N)nc12 (stereo partly drawn) [Compound A265, 2-(7-((2S,5R)-2,5-diethyl-4-(1-(4-fluoro-2-(trifluoromethyl)phenyl)ethyl)piperazin-1-yl)-5-oxo-4,5-dihydro-2H-pyrazolo[4,3-b]pyridin-2-yl)acetonitrile]	736	> 10000
CC(c1ccc2c(c1)OCCO2)N1C[C@H](C)N(c2cc(=O)n(C)c3cn(CC#N)nc23)C[C@H]1C (stereo partly drawn) [Compound A43]	65	2900
CC(c1ccc(F)cn1)N1C[C@H](C)N(c2cc(=O)n(C)c3cn(CC#N)nc23)C[C@H]1C (stereo partly drawn) [Compound A33]	> 10000	160
CC[C@H]1CN(C(C)c2ccc(C(F)F)cc2)[C@H](CC)CN1c1cc(=O)n(C)c2cn(CC#N)nc12 (stereo partly drawn) [Compound A128]	112	31
CC[C@H]1CN(C(C)c2c(OC)cc(F)cc2OC)[C@H](CC)CN1c1cc(=O)n(C)c2cn(CC#N)nc12 (stereo partly drawn) [Compound A94]	98	9130
CC#CCn1cc2c(n1)c(N1C[C@@H](CC)N(C(C)c3ccc4c(c3)OC(F)(F)O4)C[C@@H]1C)cc(=O)n2C (single isomer, unassigned) [Compound A392b]	> 10000	1070
CC(c1ccc2nccnc2c1)N1C[C@H](C)N(c2cc(=O)n(C)c3cn(CC#N)nc23)C[C@H]1CO (stereo partly drawn) [Compound A99, 2-(7-((2S,5S)-5-(hydroxymethyl)-2-methyl-4-(1-(quinoxalin-6-yl)ethyl)piperazin-1-yl)-4-methyl-5-oxo-4,5-dihydro-2H-pyrazolo[4,3-b]pyridin-2-yl)acetonitrile]	2790	> 10000
CC[C@H]1CN(C(C)c2ccc3nccnc3c2)[C@H](CC)CN1c1cc(=O)n(CCO)c2cn(CC#N)nc12 (stereo partly drawn) [Compound A95, 2-(7-((2S,5R)-2,5-diethyl-4-(1-(quinoxalin-6-yl)ethyl)piperazin-1-yl)-4-(2-hydroxyethyl)-5-oxo-4,5-dihydro-2H-pyrazolo[4,3-b]pyridin-2-yl)acetonitrile]	53	12200
CC(c1ccc(F)cc1C(F)(F)F)N1C[C@H](C)N(c2cc(=O)n(C)c3cn(CC#N)nc23)C[C@H]1C (single isomer, unassigned) [Compound A236b]	178	77400
CC(c1ccc2nccnc2c1)N1C[C@H](C)N(c2nc(=O)n(C)c3cn(CC#N)nc23)C[C@H]1C (single isomer, unassigned) [Compound A220, 2-(7-((2S,5R)-2,5-dimethyl-4-((S)-1-(quinoxalin-6-yl)ethyl)piperazin-1-yl)-4-methyl-5-oxo-4,5-dihydro-2H-pyrazolo[4,3-d]pyrimidin-2-yl)acetonitrile, or 2-(7-((2S,5R)-2,5-dimethyl-4-((R)-1-(quinoxalin-6-yl)ethyl)piperazin-1-yl)-4-methyl-5-oxo-4,5-dihydro-2H-pyrazolo[4,3-d]pyrimidin-2-yl)acetonitrile]	67	8690
CC(C1CCOCC1)N1C[C@H](C)N(c2cc(=O)n(C)c3cn(CC#N)nc23)C[C@H]1C (stereo partly drawn) [Compound A242]	> 10000	> 10000
CC[C@H]1CN(C(C)c2ccc(C(F)(F)F)cc2F)[C@H](CC)CN1c1cc(=O)n(C)c2c[nH]nc12 (single isomer, unassigned) [Compound A231a]	> 10000	1120
CCC(c1ccc(F)cc1C(F)(F)F)N1C[C@H](CC)N(c2cc(=O)n(C)c3cn(CC#N)nc23)C[C@H]1CC (stereo partly drawn) [Compound A293]	237	9950
CC[C@H]1CN(C(C(=O)NCCOC)c2ccc(C(F)(F)F)cc2)[C@H](CC)CN1c1cc(=O)n(C)c2cn(CC#N)nc12 (stereo partly drawn) [Compound A296, 2-((2R,5S)-4-(2-(cyanomethyl)-4-methyl-5-oxo-4,5-dihydro-2H-pyrazolo[4,3-b]pyridin-7-yl)-2,5-diethylpiperazin-1-yl)-N-(2-methoxyethyl)-2-(4-(trifluoromethyl)phenyl)acetamide]	189	3900
